Laboratory results from patent EP1590666B1, “COMPOSITIONS AND METHODS FOR ENHANCING APOPTOSIS” (GENENTECH, INC., priority 2003, dated 2004).
Blank lines part the entries; values can stand above or below the molecule they belong to.

How the values were obtained:
ML-IAP-BIR = molecular target: T1, ML-IAP-BIR (Homo sapiens, UniProt Q96CA5); test: fluorescence polarization-based competition assay; format: binding
T1 construct: made in house; host or cells: Escherichia coli BL21 (DE3)
T1 sequence (Q96CA5 63-179): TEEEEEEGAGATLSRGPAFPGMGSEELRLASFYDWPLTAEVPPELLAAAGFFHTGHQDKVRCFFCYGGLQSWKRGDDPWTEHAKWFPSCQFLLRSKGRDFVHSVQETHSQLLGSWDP
Description: (§1) The apparent Kd values can be determined from the EC50 values.
(§2) The apparent Kd values were determined from the EC50 values. […] Samples were read after a 10-minute incubation.

XIAP-BIR2 = molecular target: T2, XIAP-BIR2 (Homo sapiens, UniProt P98170, C202A/C213G); test: fluorescence polarization-based competition assay; format: binding; settings: Table 3, positional scanning
T2 construct: X-IAP BIR2 (amino acid residues 124-240 with mutations C202A and C213G); made in house; host or cells: Escherichia coli BL21 (DE3)
Description: as §1, §2

XIAP-BIR3 = XIAP-BIR3 (Homo sapiens, UniProt P98170); test: fluorescence polarization-based competition assay; format: binding; parameters: X-IAP BIR3 (amino acids residues 241-356); made in house; host or cells: Escherichia coli BL21 (DE3)
Description: as §1, §2

[1] = molecular target: the molecule itself; test: crystal structure, self-association

XIAP-BIR3, sequence (P98170 241-356): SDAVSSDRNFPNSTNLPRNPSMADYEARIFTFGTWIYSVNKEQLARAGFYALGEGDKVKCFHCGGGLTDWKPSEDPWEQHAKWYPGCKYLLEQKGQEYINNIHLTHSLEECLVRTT
T2 sequence (P98170 124-240 C202A/C213G): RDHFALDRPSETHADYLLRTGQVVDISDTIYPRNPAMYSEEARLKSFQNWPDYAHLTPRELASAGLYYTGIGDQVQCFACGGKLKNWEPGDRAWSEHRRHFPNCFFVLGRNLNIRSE

Molecule: CC(C)[C@H](NC(=O)[C@H](C)N)C(=O)N1CCC[C@H]1C(=O)N[C@@H](Cc1ccc(S(=O)(=O)O)cc1)C(=O)N[C@@H](C)C(=O)N[C@@H](CCC(N)=O)C(=O)N[C@@H](CCCCN)C(=O)N[C@@H](CO)C(=O)N[C@@H](CCC(=O)O)C(=O)O [AVPX2AQKSE]
- Ki (XIAP-BIR3): 8.5 µM

B1: ML-IAP-BIR (other, human, UniProt Q96CA5 63-179, looked up)
chain: T1 sequence (Q96CA5 63-179)
notes: range 63-179; Expressed in E. coli BL21(DE3) from pET15b-MLIAPBIR; also called BIR domain of ML-IAP; not shown: possible N-terminal tag from the pET15b vector (purified on Ni-agarose)
- binding result [1]: binds

Results, then the molecule that gave them:

- Ki (ML-IAP-BIR): 0.45 µM
- Ki (XIAP-BIR2): 27.7 µM
- Ki (XIAP-BIR3): 1 µM
Molecule: CC(C)[C@H](NC(=O)[C@H](C)N)C(=O)N1CCC[C@H]1C(=O)N[C@@H](Cc1ccc(I)cc1)C(=O)N[C@@H](C)C(=O)N[C@@H](CCC(N)=O)C(=O)N[C@@H](CCCCN)C(=O)N[C@@H](CO)C(=O)N[C@@H](CCC(=O)O)C(=O)O [AVPX10AQKSE]

- Ki (ML-IAP-BIR): 7.9 µM
- Ki (XIAP-BIR2): 229 µM
Molecule: CC(C)[C@H](NC(=O)[C@H](C)N)C(=O)N1CCC[C@H]1C(=O)N[C@@H](CC1CCCC1)C(=O)N[C@@H](C)C(=O)N[C@@H](CCC(N)=O)C(=O)N[C@@H](CCCCN)C(=O)N[C@@H](CO)C(=O)N[C@@H](CCC(=O)O)C(=O)O [AVPX7AQKSE]
